Reference: patent US20090062403A1, “Compositions and Methods for Treatment of Disorders of Protein Aggregation” (priority 2004, published 2009)

Tests used:
Aβ oligomers = details: positive control, previously shown; cited from earlier work
TgCRND8 mice = test: Pilot in vivo studies; design: species or system mouse; details: data not shown
Text: The TgCRND8 mice and non-transgenic littermates were assigned to sex- and age-matched cohorts that were then used to test the effectiveness of the cyclohexanehexol stereoisomers as a therapeutic (with treatment delayed until five months of age and continued for one month until six months of age). […] The endpoints were cognitive function, brain Aβ levels, and neuropathology. […] Over the course of these experiments, observers were unaware of genotype or treatment group.

Aβ = target: T1, Aβ (Homo sapiens, UniProt P05067); details: reference [16]; cited from earlier work
T1 construct: neurotoxic oligomeric/protofibrillar aggregates of amyloid β-peptide (Aβ)
T1 sequence (P05067 672-713 limits assumed): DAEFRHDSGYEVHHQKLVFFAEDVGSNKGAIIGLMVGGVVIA

| Structure (SMILES) | production of oligomers when added pre-cond (Aβ oligomers) | benefit in pilot in vivo studies (TgCRND8 mice) | effectiveness in prior in vitro studies (Aβ) |
| --- | --- | --- | --- |
| Oc1cccc(Nc2ccc(Nc3cccc(O)c3)nn2)c1 [RS0406] | reduces the production of oligomers | – | – |
| O[C@H]1[C@H](O)[C@@H](O)[C@H](O)[C@@H](O)[C@H]1O [myo-cyclohexanehexol, 1,2,3,5/4,6-(myo-)cyclohexanehexol] | – | no significant benefit | only weakly effective |
